{"source": "paper PMC6895180", "about": "(Nature Communications, 2019)", "molecules": {"B1": {"name": "T. brucei ADKIN (Trypanosoma brucei brucei TREU927) (protein)", "chain": "MSSAPLRVYVQCNPLLDVSAHVSDEFLVKYGLERGTAILLSERQKGIFDDIEKMPNVRYVPGGSGLNVARVAQWMQQAYKGKFVTYVGCIADDRYGKVLKEAAEHEGIVMAVEHTTKAGSGACAVCITGKERTLVADLGAANHLSSEHMRSPAVVRAMDESRIFYFSGFTLTVDVNHVLQACRKAREVDGLFMINLSAPFIMQFFSAQLGEVLPYTDIIVANRHEAKEFANMMKWDTDCVEEIARRAVSEVPYTGTKGRVVVFTRDIEPTVIATKDGVETVPVPQLDQDKVIDMNGAGDAFVGGFLSAYAVGKDLRRCCETGHYTAQEVIQQDGCSFPEKPSFSP"}}, "key": {"[1]": {"biological_target": "Lister 427WT T. b. brucei", "assay": "Adenosine deaminase susceptibility (drug sensitivity with/without 2 µM deoxycoformycin)", "assay_type": "cell-based, Trypanosoma brucei brucei", "conditions": "for EC50: Trypanosoma brucei, Lister 427WT, mean ± SEM, n=3", "procedure": "Drug susceptibility tests with Lister 427WT, TbAT1-KO[48], B48[26] and ISMR1[27] were performed using an assay based on the viability indicator dye resazurin in 96-well plates, each well containing 2 × 10^4 cells. The plates were incubated for 48 h with a doubling dilution series of the test compounds in HMI-9/fetal bovine serum at 37 °C/5% CO2 (23 dilutions starting at 100 µM, except for the pentamidine control (50 µM)), after which resazurin (20 µL of 125 µg mL^−1 resazurin sodium salt solution was added to each well (containing 200 µL of cells and test compound)) was added to each well and the plates incubated for another 24 h. Fluorescence was determined using a FLUOstar Optima (BMG Labtech, Durham, NC) and the results fitted to a sigmoid curve with variable slope using Prism 5.0 or Prism 7.04 (GraphPad, San Diego, CA). […]\nAdenosine deaminase susceptibility\nin the presence or absence of 2 µM 2’-deoxycoformycin. […]"}, "[2]": {"tested_on": "T. b. brucei Lister 427WT", "assay": "Drug susceptibility test (resazurin), Lister 427WT", "assay_type": "cell-based, Trypanosoma brucei brucei", "conditions": "Trypanosoma brucei", "procedure": "(§1) Drug susceptibility tests with Lister 427WT, TbAT1-KO[48], B48[26] and ISMR1[27] were performed using an assay based on the viability indicator dye resazurin in 96-well plates, each well containing 2 × 10^4 cells. The plates were incubated for 48 h with a doubling dilution series of the test compounds in HMI-9/fetal bovine serum at 37 °C/5% CO2 (23 dilutions starting at 100 µM, except for the pentamidine control (50 µM)), after which resazurin (20 µL of 125 µg mL^−1 resazurin sodium salt solution was added to each well (containing 200 µL of cells and test compound)) was added to each well and the plates incubated for another 24 h. Fluorescence was determined using a FLUOstar Optima (BMG Labtech, Durham, NC) and the results fitted to a sigmoid curve with variable slope using Prism 5.0 or Prism 7.04 (GraphPad, San Diego, CA)."}, "[3]": {"tested_on": "T. b. rhodesiense STIB-900", "assay": "microbe, parasite or virus in culture", "assay_type": "cell-based, Trypanosoma brucei rhodesiense", "procedure": "as §1\n(§2) Susceptibility assays with T. brucei Squib 427[49] or T. b. rhodesiense STIB-900[50] were performed under similar conditions as above, but using 10 concentrations of a 4-fold compound dilution series starting at 64 µM. Trypanosoma brucei Squib 427 was seeded at 1.5 × 10^4 parasites/well and T. b. rhodesiense at 4 × 10^3 parasites per well, followed by the addition of resazurin (final concentration of 10 µg mL^−1) after 24 h (T. brucei) or 6 h (T. b. rhodesiense)."}, "[4]": {"tested_on": "ISMR1: isometamidium-resistant T. brucei cell line", "assay": "microbe, parasite or virus in culture", "assay_type": "cell-based, Trypanosoma brucei brucei", "procedure": "as §1"}, "[5]": {"tested_on": "TbAT1-KO: T. brucei cell line lacking the TbAT1(P2) transporter gene", "assay": "microbe, parasite or virus in culture", "assay_type": "cell-based, Trypanosoma brucei brucei", "procedure": "as §1"}, "[6]": {"tested_on": "B48: pentamidine, diminazene and melaminophenyl arsenical resistant T. brucei line", "assay": "microbe, parasite or virus in culture", "assay_type": "cell-based, Trypanosoma brucei brucei", "conditions": "for EC50: Trypanosoma brucei"}, "[7]": {"tested_on": "T. brucei Squib 427", "assay": "microbe, parasite or virus in culture", "assay_type": "cell-based, Trypanosoma brucei brucei", "conditions": "for EC50: Trypanosoma brucei", "procedure": "as §1, §2"}, "[8]": {"parameters": "method as in earlier work", "conditions": "ref 36 (Olsen, D. B. et al.), cited from earlier work"}, "[9]": {"assay": "Cytotoxicity on MRC-5 fibroblasts (resazurin)", "assay_type": "cell-based, human", "conditions": "human", "procedure": "Cytotoxicity assays were performed on MRC-5SV2 (Sigma-Aldrich/ECACC, catalogue number 84100401) human embryonic lung fibroblasts, which were cultured in minimum essential medium with Earle’s salt medium, supplemented with L-glutamine, NaHCO3 and 5% inactivated foetal calf serum. All cultures and assays were conducted at 37 °C with 5% CO2. Ten microliters of the aqueous compound dilutions were added to 190 µL of MRC-5SV2 (3 × 10^4 cells mL^−1). Cell growth was compared to untreated control wells (100% cell growth) and medium control wells (0% cell growth). After a 3-day incubation, cell viability was assessed fluorimetrically after the addition of 50 μL resazurin per well (final concentration of 10 µg mL^−1). After 4 h at 37 °C, fluorescence was measured (λex 550 nm, λem 590 nm). The results were expressed as percentage reduction in cell growth/viability compared to control wells and an EC50 was determined."}, "[10]": {"tested_on": "Nc1ncnc2c1ncn2[C@@H]1O[C@H](CO)[C@@H](O)[C@H]1O", "assay": "cells, lysate or membranes", "conditions": "other: mean ± SEM, n = 3; pH 7.3", "method": "Non-specific association of radiolabel with the cell pellet was determined using an identical incubation in the presence of saturating (1 mM) unlabelled adenosine."}, "[11]": {"substrate": "Nc1ncnc2c1ccn2[C@@H]1O[C@H](CO)C[C@H]1O", "assay": "ADKIN assay (phosphorylation by purified recombinant enzyme, HPLC)", "assay_type": "biochemical, Trypanosoma brucei", "conditions": "other: first phosphorylation step; mean and SE, n = 3; pH 7.5", "procedure": "The T. brucei ADKIN enzyme was diluted in a buffer containing 0.05% (v/v) Tween-20, 50 mM KCl, 0.1 mM dithiothreitol, and 50 mM Tris-HCl, pH 7.5 (dilution buffer), prior to use in the assay. The final assay mixture contained 12.5 ng T. brucei ADKIN, a range between 50 and 1000 µM of nucleoside 9 (or 1000 µM deoxyadenosine in the control reaction), 100 mM KCl, 10 mM MgCl2, 0.5 mM ATP, 5 mM potassium phosphate and 50 mM Tris-HCl, pH 7.5. The assay was incubated at 37 °C for 30 min, and subsequently heated for 2 min at 100 °C to inactivate the enzyme, diluted with 2 volumes of water, centrifuged through a Nanosep 3k Omega filter and mixed 1:1:2 with water and mobile phase. The HPLC analysis was performed on a 2.1 × 150 mm ACE Excel C18 column using a mobile phase composition 4A:76B:20C (see nucleotide pool analysis, Supplementary Information for details). Using these conditions, consecutive samples could be loaded (Supplementary Fig. 12). After 4–5 samples, the column was washed with high percent A (80A:20C) to remove bound ADP and ATP before re-equilibrating the column to original conditions."}}, "note": "Several values for one entry are separate records, joined by “and”; a condition that tells them apart may be missing. Equal entries are not always repeated. Where two headings read alike, the source gives them in different places. Marks after values point to notes of the source that are not given here.", "data": [{"molecule": "Nc1ncnc2c1ccn2[C@@H]1O[C@H](CO)[C@@H](O)[C@H]1O", "note": "[Compound 6, Tubercidin, reference compound]", "values": [{"measurement": "effect of adenosine deaminase inhibition (2’-deoxycoformycin) on EC50", "setting": "[1]", "result": "not significantly affected"}, {"measurement": "EC50", "setting": "[1]; absence of deoxycoformycin, read-out: T. b. brucei EC50, -Dcf", "result": "220 ± 10", "unit": "nM"}, {"measurement": "EC50", "setting": "[1]; presence of 2 µM deoxycoformycin, read-out: T. b. brucei EC50, +Dcf", "result": "310 ± 70", "unit": "nM"}, {"measurement": "EC50", "setting": "[2]; mean and SEM, n = 3, read-out: Lister 427 EC50", "result": "150 ± 30", "unit": "nM"}, {"measurement": "EC50", "setting": "[2]; source data, read-out: s427 EC50, AVG", "result": 151, "unit": "nM"}, {"measurement": "SI (MRC/T.b. rhodesiense)", "setting": "[3]", "result": 61}, {"measurement": "EC50", "setting": "[3]; Trypanosoma brucei, RHODESIENSE, Alamar blue cell viability assay, mean and SEM, read-out: T. b. rhodesiense EC50", "result": "36 ± 1", "unit": "nM"}, {"measurement": "EC50", "setting": "[3]; Trypanosoma brucei, RHODESIENSE, source data, read-out: T. brucei rhodesiense EC50, Average", "result": 36, "unit": "nM"}, {"measurement": "EC50", "setting": "[3]; Trypanosoma brucei, RHODESIENSE, source data, read-out: T. brucei rhodesiense EC50, single measurements", "result": 35, "unit": "nM"}, {"measurement": "EC50", "setting": "[3]; source data, read-out: T. brucei rhodesiense EC50, single measurements", "result": "33.2 nM and 39.9 nM"}, {"measurement": "EC50", "setting": "[4]; Trypanosoma brucei, mean and SEM, n = 3, read-out: ISMR1 EC50", "result": "1700 ± 500", "unit": "nM"}, {"measurement": "EC50", "setting": "[4]; Trypanosoma brucei, source data, read-out: ISMR1 EC50, AVG", "result": 1670, "unit": "nM"}, {"measurement": "EC50", "setting": "[4]; Trypanosoma brucei, source data, read-out: ISMR1 EC50, single determinations", "result": 2150, "unit": "nM"}, {"measurement": "RF (ISMR1)", "setting": "[4]; resistance factor vs Lister 427WT", "result": "11.1**"}, {"measurement": "EC50", "setting": "[4]; source data, read-out: ISMR1 EC50, single determinations", "result": 1190, "unit": "nM"}, {"measurement": "EC50", "setting": "[5]; Trypanosoma brucei, read-out: TbAT1-KO EC50, mean and SEM, n = 3", "result": "2610 ± 700", "unit": "nM"}, {"measurement": "EC50", "setting": "[5]; Trypanosoma brucei, read-out: TbAT1-KO EC50, single determinations, source data", "result": 3260, "unit": "nM"}, {"measurement": "EC50", "setting": "[5]; read-out: TbAT1-KO EC50, single determinations, source data", "result": 1950, "unit": "nM"}, {"measurement": "RF (TbAT1-KO)", "setting": "[5]; resistance factor: ratio of EC50 of resistant and Lister 427WT", "result": "17.2**"}, {"measurement": "RF (B48)", "setting": "[6]", "result": "28.7*"}, {"measurement": "EC50", "setting": "[6]; mean and SEM, n = 3, read-out: B48 EC50", "result": "4300 ± 1300", "unit": "nM"}, {"measurement": "EC50", "setting": "[6]; source data, read-out: B48 EC50, AVG", "result": 4340, "unit": "nM"}, {"measurement": "SI (MRC/T.b. brucei)", "setting": "[7]", "result": 4}, {"measurement": "EC50", "setting": "[7]; Alamar blue cell viability assay, mean and SEM, read-out: T. b. brucei EC50", "result": "480 ± 100", "unit": "nM"}, {"measurement": "EC50", "setting": "[7]; source data, read-out: T. brucei brucei EC50, Average", "result": 480, "unit": "nM"}, {"measurement": "acute toxicity in mice", "setting": "[8]; 20 mg/kg over 14 days", "result": "tolerated with no visible signs of toxicity"}, {"measurement": "acute toxicity in mice", "setting": "[8]; 50 mg/kg", "result": "lethal"}, {"measurement": "EC50 at 3 day", "setting": "[9]; cytotoxicity in human MRC-5 fibroblasts, mean and SEM, read-out: MRC-5 EC50", "result": "2200 ± 700", "unit": "nM"}, {"measurement": "EC50 at 3 day", "setting": "[9]; source data, read-out: MRC-5 EC50, Average", "result": 2230, "unit": "nM"}]}, {"molecule": "P2 transporter (TbAT1) (Trypanosoma brucei)", "values": [{"measurement": "Km", "setting": "[10]", "result": "0.53 ± 0.02", "unit": "µM"}]}, {"molecule": "B1", "values": [{"measurement": "Km", "setting": "[11]", "result": "195 ± 24", "unit": "µM"}]}]}
